In patent publication US12352767B2, “Method of treating cognitive decline associated with neurological diseases based on a decrease in FLT4 expression or activity” (University of Virginia Patent Foundation, priority 2018, dated 2025):

Tested on: mice
Assay: Contextual fear conditioning test
Type: in vivo
Details: Visudyne/photoconversion twice
Experimental: This behavioral test was performed following a published protocol^53 with modifications. In this associative learning task, mice are presented with a neutral conditioned cue stimulus that is paired with an aversive unconditioned stimulus in a particular context. The mice learn that the chamber context and the cue stimulus predict the aversive stimulus and elicit a specific behavioral response, namely freezing. Mice were brought into the testing room to acclimate for at least 30 minutes before testing. For the test, we used two Habitest® chambers (Coulbourn Instruments, Allentown, PA, USA) with stainless grid floors attached to a shock generator for foot shock delivery and dimly illuminated with a white fluorescent light bulb. The chambers were cleaned and made odor-free before starting the experiment and between each session (or each mouse). The fear conditioning test was conducted over 2 days. […] On day 2, mice were tested and scored for conditioned fear to the training context for 3 minutes (context test), but with no presentation of the cue stimulus. […] Mice behaviour was recorded by a digital video camera mounted above the conditioning chamber and freezing was manually scored by a blinded experimenter using the Etholog V2.2 software. Parameters analysed included the percentage of time freezing during the 3 minutes of the context test and the last 3 minutes of the cued test.

With verteporfin [Visudyne] the CFC context test (adult mice) was “no differences between groups” and the CFC cued test (vs control groups) was “statistically significant difference”.
